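Abbreviation: GI50, concentration required for 50% inhibition of growth. TGI: concentration producing complete growth inhibition.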
Columns and labels:
Assay in all cases: inhibition of tumour cell growth, NCI panel, 384-well format
DU-145 prostate = system: DU-145 prostate
IGROV1 ovarian = system: IGROV1 ovarian
UACC-257 melanoma = system: UACC-257 melanoma
T-47D breast = system: T-47D breast
SN12C renal = system: SN12C renal
CCRF-CEM leukemia = system: CCRF-CEM leukemia
SK-OV-3 ovarian = system: SK-OV-3 ovarian
RXF 393 renal = system: RXF 393 renal
K-562 leukemia = system: K-562 leukemia
HT29 colon = system: HT29 colon
TK-10 renal = system: TK-10 renal
U251 glioblastoma = system: U251 glioblastoma
A498 renal = system: A498 renal
NCI/ADR-RES ovarian = system: NCI/ADR-RES ovarian
NCI-H522 lung = system: NCI-H522 lung
NCI-H23 lung = system: NCI-H23 lung
HS 578T breast = system: HS 578T breast
SK-MEL-28 melanoma = system: SK-MEL-28 melanoma
COLO 205 colon = system: COLO 205 colon
786-0 renal = system: 786-0 renal
HOP-62 NSCLC = system: HOP-62 NSCLC
SNB-19 CNS = system: SNB-19 CNS
NCI-H460 NSCLC = system: NCI-H460 NSCLC
MDA-MB-435 melanoma = system: MDA-MB-435 melanoma
OVCAR-3 ovarian = system: OVCAR-3 ovarian
NCI-H226 lung = system: NCI-H226 lung
OVCAR-8 ovarian = system: OVCAR-8 ovarian
M14 melanoma = system: M14 melanoma
SNB-75 CNS = system: SNB-75 CNS
A549 NSCLC = system: A549 NSCLC
HOP-92 NSCLC = system: HOP-92 NSCLC
HCT-15 colon = system: HCT-15 colon
MOLT-4 leukemia = system: MOLT-4 leukemia
NCI-H322M lung = system: NCI-H322M lung
HCT-116 colon = system: HCT-116 colon
SR leukemia = system: SR leukemia
RPMI-8226 leukemia = system: RPMI-8226 leukemia
SF-295 CNS = system: SF-295 CNS
CAKI-1 renal = system: CAKI-1 renal
HCC-2998 colon = system: HCC-2998 colon
ACHN renal = system: ACHN renal
PC-3 prostate = system: PC-3 prostate
SK-MEL-5 melanoma = system: SK-MEL-5 melanoma
SW-620 colon = system: SW-620 colon
MALME-3M melanoma = system: MALME-3M melanoma
MDA-MB-468 breast = system: MDA-MB-468 breast
HL-60(TB) leukemia = system: HL-60(TB) leukemia
OVCAR-5 ovarian = system: OVCAR-5 ovarian
BT-549 breast = system: BT-549 breast
SF-268 CNS = system: SF-268 CNS
UO-31 renal = system: UO-31 renal
MCF7 breast = system: MCF7 breast
MDA-MB-231 breast = system: MDA-MB-231 breast
OVCAR-4 ovarian = system: OVCAR-4 ovarian
EKVX NSCLC = system: EKVX NSCLC
SF-539 CNS = system: SF-539 CNS
KM12 colon = system: KM12 colon
LOX IMVI melanoma = system: LOX IMVI melanoma

COc1c/c(=C2/C=c3ccccc3=N2)[nH]/c1=C/c1[nH]c(C)cc1C
GI50 (DU-145 prostate): 33.8 nM | TGI (DU-145 prostate): 1060 nM | GI50 (IGROV1 ovarian): 30.9 nM | TGI (IGROV1 ovarian): 99.1 nM | GI50 (UACC-257 melanoma): 24.7 nM | TGI (UACC-257 melanoma): 53.7 nM | GI50 (T-47D breast): 50.2 nM | TGI (T-47D breast): 194 nM | GI50 (SN12C renal): 40.6 nM | TGI (SN12C renal): 178 nM | GI50 (CCRF-CEM leukemia): 16.4 nM | TGI (CCRF-CEM leukemia): 32.8 nM | GI50 (SK-OV-3 ovarian): 52.3 nM | TGI (SK-OV-3 ovarian): 293 nM | GI50 (RXF 393 renal): 14.2 nM | TGI (RXF 393 renal): 51.6 nM | GI50 (K-562 leukemia): 62.9 nM | TGI (K-562 leukemia): 244 nM | GI50 (HT29 colon): 21.9 nM | TGI (HT29 colon): 54.8 nM | GI50 (TK-10 renal): 25.2 nM | TGI (TK-10 renal): 65.5 nM | GI50 (U251 glioblastoma): 36.5 nM | TGI (U251 glioblastoma): 132 nM | GI50 (A498 renal): 81 nM | TGI (A498 renal): 1070 nM | GI50 (NCI/ADR-RES ovarian): 20.5 nM | TGI (NCI/ADR-RES ovarian): 40.5 nM | GI50 (NCI-H522 lung): 33.5 nM | TGI (NCI-H522 lung): 220 nM | GI50 (NCI-H23 lung): 24.7 nM | TGI (NCI-H23 lung): 63 nM | GI50 (HS 578T breast): 26.3 nM | TGI (HS 578T breast): 77.9 nM | GI50 (SK-MEL-28 melanoma): 24.4 nM | TGI (SK-MEL-28 melanoma): 61.8 nM | GI50 (COLO 205 colon): 24.6 nM | TGI (COLO 205 colon): 68.9 nM | GI50 ([…]-0 renal): 13.8 nM | TGI (786-0 renal): 33.8 nM | GI50 (HOP-62 NSCLC): 24.1 nM | TGI (HOP-62 NSCLC): 77.3 nM | GI50 (SNB-19 CNS): 54.5 nM | TGI (SNB-19 CNS): 1290 nM | GI50 (NCI-H460 NSCLC): 19.5 nM | TGI (NCI-H460 NSCLC): 41 nM | GI50 (MDA-MB-435 melanoma): 23.6 nM | TGI (MDA-MB-435 melanoma): 53.2 nM | GI50 (OVCAR-3 ovarian): 14.3 nM | TGI (OVCAR-3 ovarian): 34.6 nM | GI50 (NCI-H226 lung): 15.3 nM | TGI (NCI-H226 lung): 32.3 nM | GI50 (OVCAR-8 ovarian): 19.6 nM | TGI (OVCAR-8 ovarian): 43.1 nM | GI50 (M14 melanoma): 22.3 nM | TGI (M14 melanoma): 52.7 nM | GI50 (SNB-75 CNS): 32.8 nM | TGI (SNB-75 CNS): 85.2 nM | GI50 (A549 NSCLC): 120 nM | TGI (A549 NSCLC): 385 nM | GI50 (HOP-92 NSCLC): 23.9 nM | TGI (HOP-92 NSCLC): 67.1 nM | GI50 (HCT-15 colon): 17.9 nM | TGI (HCT-15 colon): 35.2 nM | GI50 (MOLT-4 leukemia): 14.9 nM | TGI (MOLT-4 leukemia): 28.7 nM | GI50 (NCI-H322M lung): 56.4 nM | TGI (NCI-H322M lung): 1140 nM | GI50 (HCT-116 colon): 17.2 nM | TGI (HCT-116 colon): 33.1 nM | GI50 (SR leukemia): 20.7 nM | TGI (SR leukemia): 35.3 nM | GI50 (RPMI-8226 leukemia): 19.7 nM | TGI (RPMI-8226 leukemia): 39.8 nM | GI50 (SF-295 CNS): 35.1 nM | TGI (SF-295 CNS): 155 nM | GI50 (CAKI-1 renal): 45.2 nM | TGI (CAKI-1 renal): 269 nM | GI50 (HCC-2998 colon): 17.1 nM | TGI (HCC-2998 colon): 69 nM | GI50 (ACHN renal): 32.5 nM | TGI (ACHN renal): 123 nM | GI50 (PC-3 prostate): 17.8 nM | TGI (PC-3 prostate): 76.8 nM | GI50 (SK-MEL-5 melanoma): 19.4 nM | TGI (SK-MEL-5 melanoma): 37.3 nM | GI50 (SW-620 colon): 22.2 nM | TGI (SW-620 colon): 47.2 nM | GI50 (MALME-3M melanoma): 27.2 nM | TGI (MALME-3M melanoma): 64.3 nM | GI50 (MDA-MB-468 breast): 197 nM | TGI (MDA-MB-468 breast): 587 nM | GI50 (HL-60(TB) leukemia): 17.3 nM | TGI (HL-60(TB) leukemia): 31.6 nM | GI50 (OVCAR-5 ovarian): 33 nM | TGI (OVCAR-5 ovarian): 1230 nM | GI50 (BT-549 breast): 15.6 nM | TGI (BT-549 breast): 58.2 nM | GI50 (SF-268 CNS): 19.3 nM | TGI (SF-268 CNS): 88.6 nM | GI50 (UO-31 renal): 18.8 nM | TGI (UO-31 renal): 35.3 nM | GI50 (MCF7 breast): 32 nM | TGI (MCF7 breast): 106 nM | GI50 (MDA-MB-231 breast): 19.3 nM | TGI (MDA-MB-231 breast): 52.7 nM | GI50 (OVCAR-4 ovarian): 24.2 nM | TGI (OVCAR-4 ovarian): 158 nM | GI50 (EKVX NSCLC): 24.5 nM | TGI (EKVX NSCLC): 81.2 nM | GI50 (SF-539 CNS): 31.6 nM | TGI (SF-539 CNS): 83.2 nM | GI50 (KM12 colon): 27.8 nM | TGI (KM12 colon): 99.8 nM | GI50 (LOX IMVI melanoma): 17.7 nM | TGI (LOX IMVI melanoma): 32.4 nM

— PubChem BioAssay (NCI)
